Test results reported in patent publication US20040171086A1, “Selective modulation of TLR-mediated biological activity” (3M Innovative Properties Company, priority 2003, published 2004).

target: T1, human TLR8 (Homo sapiens, UniProt Q9NR97); assay: NFκB-luciferase reporter assay in HEK293 cells transfected with human TLR8 (HEK293-TLR8); assay type: cell-based; settings: HEK293-TLR8, 10 μM IRM, 16 hours
T1 construct: expressed in transfected cells; host or cells: HEK293 (ATCC CRL-1573), pIRES vector, G-418 selected
T1 sequence (Q9NR97 27-1041): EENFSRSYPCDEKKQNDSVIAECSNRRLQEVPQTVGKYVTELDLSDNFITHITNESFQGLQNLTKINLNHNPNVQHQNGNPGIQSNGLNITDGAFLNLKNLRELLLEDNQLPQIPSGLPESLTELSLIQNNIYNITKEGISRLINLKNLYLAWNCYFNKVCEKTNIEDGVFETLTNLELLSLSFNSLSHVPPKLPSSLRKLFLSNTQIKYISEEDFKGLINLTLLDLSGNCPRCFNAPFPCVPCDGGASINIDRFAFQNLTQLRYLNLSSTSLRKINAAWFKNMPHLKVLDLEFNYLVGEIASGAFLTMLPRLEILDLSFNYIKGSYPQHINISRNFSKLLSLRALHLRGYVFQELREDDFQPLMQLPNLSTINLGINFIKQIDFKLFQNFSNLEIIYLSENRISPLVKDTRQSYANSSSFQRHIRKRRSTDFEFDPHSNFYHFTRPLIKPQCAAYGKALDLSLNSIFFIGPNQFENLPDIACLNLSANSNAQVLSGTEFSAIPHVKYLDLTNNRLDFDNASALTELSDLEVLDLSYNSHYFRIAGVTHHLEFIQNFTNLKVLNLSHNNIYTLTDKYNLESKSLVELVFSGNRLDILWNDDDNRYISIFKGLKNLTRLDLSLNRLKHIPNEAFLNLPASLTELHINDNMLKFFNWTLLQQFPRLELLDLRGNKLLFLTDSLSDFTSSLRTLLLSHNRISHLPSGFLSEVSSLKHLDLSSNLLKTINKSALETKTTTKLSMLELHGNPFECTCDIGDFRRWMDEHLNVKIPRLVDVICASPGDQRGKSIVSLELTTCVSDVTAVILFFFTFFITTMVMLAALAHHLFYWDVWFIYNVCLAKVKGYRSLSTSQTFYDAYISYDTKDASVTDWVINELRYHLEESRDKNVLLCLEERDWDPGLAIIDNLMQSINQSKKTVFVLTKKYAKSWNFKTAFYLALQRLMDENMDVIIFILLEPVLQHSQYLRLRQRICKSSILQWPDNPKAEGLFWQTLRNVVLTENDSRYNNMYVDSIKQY
Protocol: A compound was identified as increasing cellular activity mediated through a given TLR if it induced at least a two-fold increase in NFκB-induced luciferase signal compared to the control.
HEK293 medium was prepared from 90% Minimum Essential Medium (MEM) with 2 mM L-glutamine and Earle's Balanced Salt Solution (Invitrogen Corp., Rockville, Md.) adjusted to contain 1.5 g/L sodium bicarbonate, 0.1 mM non-essential amino acids, and 1.0 mM sodium pyruvate; 10% heat-inactivated fetal calf serum. HEK293 cells were cultured by incubating cells in HEK293 medium overnight at 37° C., 8% CO2.
The cells were co-transfected with (1) pIRES (BD Biosciences Clontech, Palo Alto, Calif.) either (a) unmodified (HEK293-vector), (b) containing an expressible human TLR7 gene (HEK293-TLR7), or (c) containing an expressible human TLR8 gene (HEK293-TLR8), and (2) NFκB-luc reporter (Stratagene, La Jolla, Calif.) in a 10:1 ratio with Fugene 6 transfection reagent (Roche Diagnostics Corp., Indianapolis, Ind.) following the manufacturer's instructions.
The cells were stimulated with 1 μL of IRM compounds at 1 mM in DMSO (final IRM concentration of 10 μM) or 1 μL DMSO as a control. The plates were then incubated an additional 16 hours at 37° C., 5% CO2. The luciferase signal was read using the LucLite kit (Packard Instrument Co., Meriden, Conn.). Luminescence was measured on an LMAX luminometer (Molecular Devices Corp., Sunnyvale, Calif.).

| SMILES | TLR8: fold increase of NFκB-induced luciferase signal compared to a DMSO control |
| --- | --- |
| CCOCc1nc2c(N)nc3ccccc3c2n1CC(C)C [IRM1, 2-(ethoxymethyl)-1-(2-methylpropyl)-1H-imidazo[4,5-c]quinolin-4-amine] | 1.02 fold increase |
| COCCc1nc2c(N)nc3ccccc3c2n1CCOCCN(C)C(=O)C1CCCCC1 [IRM3, N-(2-{2-[4-amino-2-(2-methoxyethyl)-1H-imidazo[4,5-c]quinolin-1-yl]ethoxy}ethyl)-N-methylcyclohexanecarboxamide] | 1.14 fold increase |
| CCCCc1nc2c(N)nc3ccccc3c2n1CCCCCS(C)(=O)=O [IRM6, 2-butyl-1-[5-(methylsulfonyl)pentyl]-1H-imidazo[4,5-c]quinolin-4-amine] | 0.90 fold increase |
| CCc1nc2c(N)nc3ccccc3c2n1CCCCNC(=O)C1CCCCC1 [IRM8, N-[4-(4-amino-2-ethyl-1H-imidazo[4,5-c]quinolin-1-yl)butyl]cyclohexanecarboxamide] | 0.99 fold increase |
| CCc1nc2c(N)nc3ccccc3c2n1CCCCSc1cc(Cl)cc(Cl)c1 [IRM14, 1-{4-[(3,5-dichlorophenyl)thio]butyl}-2-ethyl-1H-imidazo[4,5-c]quinolin-4-amine] | 4.18 fold increase |
| CCOCc1nc2c(N)nc3c(c2n1CC(C)(C)O)CCCC3 [IRM16, 4-amino-2-ethoxymethyl-α,α-dimethyl-6,7,8,9-tetrahydro-1H-imidazo[4,5-c]quinoline-1-ethanol] | 8.64 fold increase |
| COCCc1nc2c(N)nc3ccccc3c2n1CCOCCNC(=O)Nc1ccccc1 [IRM19, N-(2-{2-[4-amino-2-(2-methoxyethyl)-1H-imidazo[4,5-c]quinolin-1-yl)ethoxy}ethyl)-N′-phenylurea] | 7.25 fold increase |
| CCC(C)NC(=S)NCCn1c(CCOC)nc2c(N)nc3ccccc3c21 (stereo not drawn) [IRM21, N-{2-[4-amino-2-(2-methoxyethyl)-1H-imidazo[4,5-c]quinolin-1-yl]ethyl}-N′-sec-butylthiourea] | 5.92 fold increase |
| COCCc1nc2c(N)nc3c(c2n1CC(C)(C)NS(C)(=O)=O)CCCC3 [IRM22, N-{2-[4-amino-2-(2-methoxyethyl)-6,7,8,9-tetrahydro-1H-imidazo[4,5-c]quinolin-1-yl]-1,1-dimethylethyl}methanesulfonamide] | 7.37 fold increase |
